According to EP0103552B1, “Novel derivatives of guanine” (priority 1982, dated 1984):

Legend:
herpes simplex type 1 = assay: plaque reduction assay, inhibition of virus multiplication in cell cultures; format: cell-based; conditions: herpes simplex type 1 plaque on Vero cell mono-layers
Description: The inhibition of herpesvirus by VIS 590 and VSA 687 has been measured as plaque reduction according to the following procedure. The plaque reduction assay for herpes simplex type 1 was performed on Vero (Green Monkey Kidney) cells as described by Ejercito et al., J. Gen. Virol. 2 (1968) 357. Monolayers on 5 cm petri dishes were used and after virus adsorption the compounds to be tested were added to-the medium.

[1] = cellular toxicity, reduction in cell growth; format: cell-based, Green Monkey; conditions: monkey, vero cells; Conc. 100 µM; after 48 h of incubation; read-out: Percent reduction in growth of Vero cells, determined as cell number
Description: (§1) The method used has been described by Stenberg (Biochemical Pharmacology, Vol. 30 (1980), 1005-1008). […] However, at this concentration, herpes virus multiplication was inhibited to more than 90% (see Table 1). Table 2. Cellular toxicity of VIS 590 expressed as percent reduction in cell growth after 48 h of incubation.

Vero cells = assay: cellular toxicity, reduction in cell growth; format: cell-based, Green Monkey; conditions: at 100 µM
Description: as §1

Nc1nc2c(ncn2CC(=O)CCO)c(=O)[nH]1 [VIS 590, 9-(2-oxo-4-hydroxybutyl)guanine]
Inhibition % (herpes simplex type 1; Conc. 10 μ): 35%
inhibition at 48 h, 100 µM [1]: 0%
effect on cell growth (in words) (Vero cells): did not affect cell growth

Nc1nc2c(ncn2CC(=O)C(O)CO)c(=O)[nH]1 (stereo not shown) [VSA 687, 9-(2-oxo-3,4-dihydroxybutyl)guanine]
Inhibition % (herpes simplex type 1; Conc. 35 μ): >90%
